Consider 25 compounds from patent US20250230138A1, “COMPOUNDS HAVING A T-STRUCTURE FORMED BY AT LEAST FOUR CYCLES FOR USE IN THE TREATMENT OF CANCER AND OTHER INDICATIONS” (TheRas, Inc., priority 2022, published 2025).

As a reminder, the IC50 is the point on the concentration scale where inhibition reaches its midpoint.

The target of assay [1] is Cys242 in human PIK3CA (157-299) (Homo sapiens (Human), UniProt P42336). The experiment in a line: Covalent modification assay using MALDI-TOF MS. The assay is classed as biochemical. Particulars: 4 h reaction time point. The gist of the method: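 PIK3CA (157-299), 3.33 or 1 μM in 20 mM HEPES, 150 mM NaCl, 2 mM MgCl2, pH 7.3, was incubated with compound at room temperature in the dark for 15 min, 30 min, 2 h or 4 h. Linear MALDI-TOF read-out; % modification = adduct peak height over summed heights of all protein species.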
Sequence of Cys242 in human PIK3CA (157-299) (P42336 157-299): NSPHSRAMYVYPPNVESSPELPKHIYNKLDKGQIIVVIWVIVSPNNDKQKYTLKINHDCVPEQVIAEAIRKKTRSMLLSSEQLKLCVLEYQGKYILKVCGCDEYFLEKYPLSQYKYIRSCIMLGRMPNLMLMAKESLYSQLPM

The next assay relates to pAKT in BT474 cells. Put plainly: Cell-based pAKT HTRF assay in BT474 cells. Particulars: BT474 cells, 4 hr incubation, read-out: pAKT inhibition IC50 in BT474 cells. The gist of the method:
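The HTRF signal (excitation 320 nm, emission 615 nm) came from d2/Eu Cryptate antibodies added to lysates and incubated 4–24 h at room temperature. Those lysates were taken from cells treated for 4 hr with compound, top concentration 3 μM, in 0.25% DMSO.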
In general terms: TR-FRET usually uses a lanthanide donor and a delayed reading to cut background.

Setting [2] is: 3.33 μM protein target, 1:7.5 protein to compound ratio (compounds 1-852).
The mark [3] stands for this setting: 1 μM protein target, 1:5 protein to compound ratio (compounds 853-1279).
Setting [4] is: Homo sapiens, BT-474, Compounds 10-999.

Where two headings read alike, the source gives them in different places.

Turning to `C=CC(=O)N1Cc2cc(-c3nc(-c4cnnc(C)c4)c4ccsc4c3-c3c(F)cc(F)cc3OCCO)nn2CC1C` (centres unmarked) [Compound 829], in assay [1] (setting [2]), the “% of modification” value is “A (percent of modification of PIK3CA protein ≥75%)”. Also, the concentration for half-maximal inhibition (IC50) in the assay with pAKT in BT474 cells (Compounds 10-999) was under 100 nM.
Turning to `C=CC(=O)N1CCn2nc(-c3nc(-c4cnc(N5CCN(C)CC5)nc4)c4ccsc4c3-c3c(F)cc(F)cc3OCCOC)cc2[C@H]1C` [Compound 951, 1-((R)-2-((S)-7-(2,4-difluoro-6-(2-methoxyethoxy)phenyl)-4-(2-(4-methylpiperazin-1-yl)pyrimidin-5-yl)thieno[3,2-c]pyridin-6-yl)-4-methyl-6,7-dihydropyrazolo[1,5-a]pyrazin-5(4H)-yl)prop-2-en-1-one], the “% of modification” value in assay [1] (setting [3]) is “A (percent of modification of PIK3CA protein ≥75%)”. Besides, the IC50 in the assay on pAKT in BT474 cells (setting [4]) is under 100 nM.
Regarding `C=CC(=O)N1CCn2nc(-c3nc(N4CCC5(CC4)COC5)c4ccsc4c3-c3ccc(F)cc3OC(C)C)cc2C1` [Compound 207], the “% of modification” value in assay [1] (setting [2]) is listed as “A (percent of modification of PIK3CA protein ≥75%)”. For the same compound, the IC50 in the assay with pAKT in BT474 cells (Compounds 10-999) was under 100 nM.
Turning to `C=CC(=O)N1CCn2nc(-c3nc(N4CCN(C(C)C)CC4)c4ccsc4c3-c3ccc(F)cc3OCCOC)cc2C1` [Compound 209], in assay [1] (setting [2]), the “% of modification” value is on record as “A (percent of modification of PIK3CA protein ≥75%)”. In addition, in the assay on pAKT in BT474 cells (Compounds 10-999), the IC50 was under 100 nM.
On the same counts, the results for `C=CC(=O)N1CCc2ncc(-c3nc(-c4ccc(=O)n(C)c4)c4ccsc4c3-c3c(F)cc(F)cc3OCCOC)cc2C1` [Compound 375] are “A (percent of modification of PIK3CA protein ≥75%)” and under 100 nM.
For `C=CC(=O)N1CCc2nc(-c3nc(-c4ccc5c(c4)CCNC5)c4ccsc4c3-c3c(F)cc(Cl)cc3OCCOC)sc2C1` [Compound 465], the “% of modification” value in assay [1] (setting [2]) was “A (percent of modification of PIK3CA protein ≥75%)”. Also, the IC50 in the assay on pAKT in BT474 cells (Compounds 10-999) is 100 to 1000 nM.
On the same counts, the results for `C=CC(=O)N1CCn2nc(-c3nc(-c4ccc5c(c4)CCNC5=O)c4ccsc4c3-c3ccc(F)cc3OC(C)C)nc2C1` [Compound 219] are “A (percent of modification of PIK3CA protein ≥75%)” and under 100 nM.
On the same counts, the results for `C=CC(=O)N1CCn2nc(-c3nc(-c4ccc5ncn(C)c5c4)c4ccsc4c3-c3c(F)cc(F)cc3OCCO)cc2C1C` (centres unmarked) [Compound 773] are “A (percent of modification of PIK3CA protein ≥75%)” and under 100 nM.
On the same counts, the results for `C=CC(=O)N1CCn2nc(-c3nc(-c4ccc5c(cnn5C)c4)c4ccsc4c3-c3c(F)cc(F)cc3OCCOC)cc2[C@H]1C` [Compound 758, 1-((R)-2-((S)-7-(2,4-difluoro-6-(2-methoxyethoxy)phenyl)-4-(1-methyl-1H-indazol-5-yl)thieno[3,2-c]pyridin-6-yl)-4-methyl-6,7-dihydropyrazolo[1,5-a]pyrazin-5(4H)-yl)prop-2-en-1-one] are “A (percent of modification of PIK3CA protein ≥75%)” and under 100 nM.
On to `C=CC(=O)N1CCn2nc(-c3nc(-c4ccc5c(c4)CN(C)C5=O)c4ccsc4c3-c3c(F)cc(F)cc3OCCO)cc2C1C` (centres unmarked) [Compound 875], for which, in assay [1] (setting [3]), the “% of modification” value was “A (percent of modification of PIK3CA protein ≥75%)”. The IC50 in the assay on pAKT in BT474 cells (Compounds 10-999) is under 100 nM.
Regarding `C=CC(=O)N1Cc2cc(-c3nc(-c4cnc5c(c4)CN(C)C5=O)c4ccsc4c3-c3c(F)cc(F)cc3OC(C)C)nn2[C@@H](C)C1` [Compound 505], in assay [1] (setting [2]), the “% of modification” value is reported as “A (percent of modification of PIK3CA protein ≥75%)”. In addition, in the assay on pAKT in BT474 cells (Compounds 10-999), the IC50 was under 100 nM.
On the same counts, the results for `C=CC(=O)N1Cc2cc(-c3nc(-c4ccc5ncn(C)c5c4)c4ccsc4c3-c3c(F)cc(F)cc3OCCOC)nn2C[C@H]1C` [Compound 689] are “A (percent of modification of PIK3CA protein ≥75%)” and under 100 nM.
Turning to `C=CC(=O)N1Cc2cc(-c3nc(-c4ccc(=O)n(CCN(C)C)c4)c4ccsc4c3-c3c(F)cc(F)cc3OCCOC)nn2C[C@H]1C` [Compound 880], in assay [1] (setting [3]), the “% of modification” value is on record as “A (percent of modification of PIK3CA protein ≥75%)”. For the same compound, the IC50 in the assay with pAKT in BT474 cells (Compounds 10-999) is under 100 nM.
In the case of `C=CC(=O)N1CC(n2cc(-c3nc(-c4ccc5c(c4)CCNC5)c4c(c3-c3ccc(F)cc3OCCOC)CCC4)ccc2=O)C1` [Compound 154], the “% of modification” value in assay [1] (setting [2]) was “A (percent of modification of PIK3CA protein ≥75%)”. Moreover, the IC50 with pAKT in BT474 cells (Compounds 10-999) is under 100 nM.
As for `C=C(F)C(=O)N1CCn2nc(-c3nc(-c4ccc5c(cnn5C)c4)c4ccsc4c3-c3c(F)cc(F)cc3OCCOC)cc2[C@H]1C` [Compound 1226], the “% of modification” value in assay [1] (setting [3]) is recorded as “D (percent of modification <25%)”. Besides, the concentration for half-maximal inhibition (IC50) in the assay on pAKT in BT474 cells (Compounds 1000-1279) was in the range of 100 to 1000 nM.
For `C=CC(=O)N1Cc2cc(-c3nc(-c4ccc5ncn(C)c5c4)c4ccsc4c3-c3c(F)cc(F)cc3OC(C)C)nn2CC1C` (centres unmarked) [Compound 488], the “% of modification” value in assay [1] (setting [2]) is “A (percent of modification of PIK3CA protein ≥75%)”. For the same compound, the half-maximal inhibitory concentration (IC50) in the assay with pAKT in BT474 cells (Compounds 10-999) is under 100 nM.
`C=CC(=O)N1CCn2nc(-c3nc(-c4ccc5c(c4)CCNC5)c4ccsc4c3-c3ccc(F)cc3OCCOC)cc2C1` [Compound 115, 1-[2-[7-[4-fluoro-2-(2-methoxyethoxy)phenyl]-4-(1,2,3,4-tetrahydroisoquinolin-6-yl)thieno[3,2-c]pyridin-6-yl]-6,7-dihydro-4H-pyrazolo[1,5-a]pyrazin-5-yl]prop-2-en-1-one]: the “% of modification” value in assay [1] (setting [2]) was “A (percent of modification of PIK3CA protein ≥75%)”. Besides, in the assay on pAKT in BT474 cells (setting [4]), the IC50 was under 100 nM.
With `C=CC(=O)N1Cc2cc(-c3nc(-c4cc5n(n4)CCNC5=O)c4ccsc4c3-c3c(F)cc(F)cc3OCCOC)nn2C[C@H]1C` [Compound 685], the “% of modification” value in assay [1] (setting [2]) was “A (percent of modification of PIK3CA protein ≥75%)”. In the assay with pAKT in BT474 cells (Compounds 10-999), the IC50 was under 100 nM.
As for `C=CC(=O)N1CCn2nc(-c3nc(-c4ccc5c(cnn5C)c4F)c4ccsc4c3-c3c(F)cc(F)cc3OCCOC)cc2C1C` (centres unmarked) [Compound 1144], in assay [1] (setting [3]), the “% of modification” value is “A (percent of modification of PIK3CA protein ≥75%)”. Besides, the IC50 with pAKT in BT474 cells (Compounds 1000-1279) was under 100 nM.
For `C=C(F)C(=O)N1CCn2nc(-c3nc(-c4ccc5c(c4)CCN(C)C5)c4ccsc4c3-c3c(F)cc(F)cc3OC(C)C)cc2C1` [Compound 342], the “% of modification” value in assay [1] (setting [2]) is listed as “B (50%<percent of modification <75%)”. Moreover, in the assay with pAKT in BT474 cells (Compounds 10-999), the IC50 is under 100 nM.
As to `C=CC(=O)N1CCc2cc(-c3nc(-c4ccc5ncn(C)c5c4)c4ccsc4c3-c3c(F)cc(F)cc3OC(C)C)nn2CC1` [Compound 573], the “% of modification” value in assay [1] (setting [2]) was “A (percent of modification of PIK3CA protein ≥75%)”. The IC50 in the assay with pAKT in BT474 cells (Compounds 10-999) is under 100 nM.
On the same counts, the results for `C=CC(=O)N1CCn2nc(-c3nc(-c4cnn(C)c4)c4ccsc4c3-c3c(F)cc(F)cc3OC[C@@H](C)O)cc2[C@@H]1C` [Compound 547] are “A (percent of modification of PIK3CA protein ≥75%)” and under 100 nM.
On the same counts, the results for `C=CC(=O)N1Cc2cc(-c3nc(-c4nc(C)no4)c4ccsc4c3-c3c(F)cc(F)cc3OCCOC)nn2C[C@H]1C` [Compound 822] are “A (percent of modification of PIK3CA protein ≥75%)” and under 100 nM.
For the compound `C=CC(=O)N1CCc2nc(-c3nc(-c4ccc5c(c4)CCN(C)C5)c4ccsc4c3-c3c(F)cc(F)cc3OC(F)F)sc2C1` [Compound 475], the “% of modification” value in assay [1] (setting [2]) is “B (50%<percent of modification <75%)”. Further, the IC50 with pAKT in BT474 cells (Compounds 10-999) was over 3000 nM.
As to `C=CC(=O)N1CCc2nc(-c3nc(-c4ccc5c(c4)CCN(C)C5)c4ccsc4c3-c3c(F)cc(F)cc3OC(CF)CF)sc2C1` [Compound 522], the “% of modification” value in assay [1] (setting [2]) was “A (percent of modification of PIK3CA protein ≥75%)”. In the assay with pAKT in BT474 cells (Compounds 10-999), the concentration for half-maximal inhibition (IC50) is 100 to 1000 nM.
